Measured values as given in article PMC4534193, “Binding of the Lactococcal Drug Dependent Transcriptional Regulator LmrR to Its Ligands and Responsive Promoter Regions” (PLoS ONE, 2015).

Molecular target: T1, LmrR (Lactococcus cremoris, UniProt A2RI36)
T1 construct: gene llmg_0323; LmrR homodimer; untagged protein for the crystal (residues 1–5, 70–75 and 109–116 not modelled)
T1 sequence (A2RI36 1-116): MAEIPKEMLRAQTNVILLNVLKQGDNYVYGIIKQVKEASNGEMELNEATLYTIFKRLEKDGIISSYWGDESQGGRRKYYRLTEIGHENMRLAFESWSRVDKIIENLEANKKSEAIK
Assay: co-crystal structure ([…] Å) and riboflavin fluorescence quenching titration
Assay type: binding

In the case of `Cc1cc2nc3c(=O)[nH]c(=O)nc-3n(C[C@H](O)[C@H](O)[C@H](O)CO)c2cc1C` [RBF, riboflavin], the Kd is reported as 260 ± 80 nM.
